SMILES strings stand for the structures.

In the first experiment the target is Endothelial lipase (EL) (Homo sapiens (Human), UniProt Q9Y5X9). Briefly: Endothelial lipase (EL) enzymatic assay with fluorescent substrate A10070 in DMPG vesicles. The experiment is classed as biochemical.
Sequence of Endothelial lipase (EL) (Q9Y5X9 21-500): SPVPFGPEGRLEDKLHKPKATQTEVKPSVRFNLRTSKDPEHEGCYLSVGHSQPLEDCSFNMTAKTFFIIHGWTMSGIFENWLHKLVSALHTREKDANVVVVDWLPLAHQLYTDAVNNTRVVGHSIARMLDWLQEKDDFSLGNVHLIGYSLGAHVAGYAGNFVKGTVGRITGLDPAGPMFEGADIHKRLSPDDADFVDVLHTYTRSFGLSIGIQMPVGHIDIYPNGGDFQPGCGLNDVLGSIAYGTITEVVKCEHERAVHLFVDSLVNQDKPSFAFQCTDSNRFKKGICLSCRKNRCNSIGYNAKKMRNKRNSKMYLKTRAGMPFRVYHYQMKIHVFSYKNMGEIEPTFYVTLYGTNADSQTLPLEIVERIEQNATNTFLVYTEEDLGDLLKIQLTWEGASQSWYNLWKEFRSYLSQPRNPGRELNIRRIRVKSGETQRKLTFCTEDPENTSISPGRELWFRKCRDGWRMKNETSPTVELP
Settings: not given
The method in brief:
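EL from conditioned medium of HT-1080 cells engineered to overexpress endogenous EL; HL partially purified from conditioned medium of HL-overexpressing COS cells. Enzyme preincubated with compound 30 min at 37° C in 50 mM HEPES pH 8.0, 50 mM NaCl, 1 mM CaCl2; DMPG vesicles carrying FRET substrate (0.11 mole fraction) then added.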
As usually defined, the IC50 is the midpoint of a concentration-inhibition curve. A low value points to inhibition by little substance. In turn, `Cc1ccn(-c2cccc(-c3ccc4nc(C(C(=O)NCC(=O)NC5CC5)S(C)(=O)=O)sc4c3)n2)n1` (centres unmarked) [Example 412, N-[(cyclopropyl-carbamoyl)methyl]-2-methanesulfonyl-2-{6-[6-(3-methyl-1H-pyrazol-1-yl)pyridin-2-yl]-1,3-benzothiazol-2-yl}acetamide] returned an IC50 of 14 nM. In other words, the double-digit nanomolar range. Regarding `Cc1cnn(-c2cccc(-c3ccc4nc(C(C(=O)NCC(=O)NC5CC5)S(C)(=O)=O)sc4c3)n2)c1` (centres unmarked) [Example 413, N-[(cyclopropyl-carbamoyl)methyl]-2-methanesulfonyl-2-{6-[6-(4-methyl-1H-pyrazol-1-yl)pyridin-2-yl]-1,3-benzothiazol-2-yl}acetamide], half-maximal inhibition (IC50) was put at 7 nM. The molecule `COCCS(=O)(=O)C(C(=O)NCC(=O)NC1CC1)c1nc2cc(F)c(-c3ccc(-c4cc(O)n[nH]4)cc3)cc2s1` (centres unmarked) [Example 415, N-[(cyclopropyl-carbamoyl)methyl]-2-{5-fluoro-6-[4-(3-hydroxy-1H-pyrazol-5-yl)phenyl]-1,3-benzothiazol-2-yl}-2-(2-methoxyethane-sulfonyl)acetamide] registered an IC50 of 49 nM. `COCCS(=O)(=O)C(C(=O)NCC(=O)NC1CC1)c1nc2cc(F)c(-c3ccc4c(c3)CCN4C(C)=O)cc2s1` (centres unmarked) [Example 416, 2-[6-(1-acetyl-2,3-dihydro-1H-indol-5-yl)-5-fluoro-1,3-benzothiazol-2-yl]-N-[(cyclopropyl-carbamoyl)methyl]-2-(2-methoxyethane-sulfonyl)acetamide] displayed an IC50 of 11 nM. On to `COCCS(=O)(=O)C(C(=O)NCC(=O)NC1CC1)c1nc2cc(F)c(-c3ccc4c(c3)OCC(=O)N4)cc2s1` (centres unmarked) [Example 417, N-[(cyclopropyl-carbamoyl)methyl]-2-[5-fluoro-6-(3-oxo-3,4-dihydro-2H-1,4-benzoxazin-7-yl)-1,3-benzothiazol-2-yl]-2-(2-methoxyethane-sulfonyl)acetamide], for which inhibition was half-maximal at 35 nM (IC50). This IC50 lies about 3.2-fold higher than the previous one. `COCCS(=O)(=O)C(C(=O)NCC(=O)NC1CC1)c1nc2cc(F)c(-c3ccc4c(c3)CCCN4C(=O)OC(C)(C)C)cc2s1` (centres unmarked) [Example 418, tert-butyl 6-[2-({[(cyclopropyl-carbamoyl)methyl]carbamoyl}(2-methoxyethane-sulfonyl)methyl)-5-fluoro-1,3-benzothiazol-6-yl]-1,2,3,4-tetrahydro-quinoline-1-carboxylate]: half-maximal inhibition (IC50) was put at 9 nM. On the same count and under the same terms, with `COCCS(=O)(=O)C(C(=O)NCC(=O)NC1CC1)c1nc2cc(F)c(-c3ccc4c(c3)OCCN4C(=O)OCc3ccccc3)cc2s1` (centres unmarked) [Example 419, benzyl 7-[2-({[(cyclopropyl-carbamoyl)methyl]carbamoyl}(2-methoxyethane-sulfonyl)methyl)-5-fluoro-1,3-benzothiazol-6-yl}-3,4-dihydro-2H-1,4-benzoxazine-4-carboxylate] the figure was 9 nM. Regarding `COCCS(=O)(=O)C(C(=O)NCC(=O)NC1CC1)c1nc2cc(F)c(-c3ccc(-c4nn[nH]n4)c(F)c3)cc2s1` (centres unmarked) [Example 420, N-[(cyclopropyl-carbamoyl)methyl]-2-{5-fluoro-6-[3-fluoro-4-(2H-1,2,3,4-tetrazol-5-yl)phenyl]-1,3-benzothiazol-2-yl}-2-(2-methoxyethane-sulfonyl)acetamide], the IC50 was found to be 11 nM. For `COC(=O)Nc1ccc(-c2cc3sc(C(C(=O)NCC(=O)NC4CC4)S(=O)(=O)CCN4CCOCC4)nc3cc2F)cc1` (centres unmarked) [Example 422, methyl N-{4-[2-({[(cyclopropyl-carbamoyl)methyl]carbamoyl}[2-(morpholin-4-yl)ethanesulfonyl]methyl)-5-fluoro-1,3-benzothiazol-6-yl]phenyl} carbamate], the IC50 was 3 nM. This IC50 lies about 3.7-fold lower than the previous one. Still for that read-out and setting: with `O=C(CNC(=O)C(c1nc2cc(F)c(-c3ccc(NC(=O)OCc4ccccc4)cc3)cc2s1)S(=O)(=O)CCN1CCOCC1)NC1CC1` (centres unmarked) [Example 423, benzyl N-{4-[2-({[(cyclopropyl-carbamoyl)methyl]carbamoyl}[2-(morpholin-4-yl)ethanesulfonyl]methyl)-5-fluoro-1,3-benzothiazol-6-yl]phenyl} carbamate] the figure was 1 nM. Still for that read-out and setting: the figure for `O=C(CNC(=O)C(c1nc2cc(F)c(-c3ccc(NC(=O)OCc4ccccc4)nc3)cc2s1)S(=O)(=O)CCN1CCOCC1)NC1CC1` (centres unmarked) [Example 424, benzyl N-{5-[2-({[(cyclopropyl-carbamoyl)methyl]carbamoyl}[2-(morpholin-4-yl)ethanesulfonyl]methyl)-5-fluoro-1,3-benzothiazol-6-yl]pyridin-2-yl} carbamate] is 15 nM; for `CC(C)c1cc(CNC(=O)c2ccc3sc(C(C(=O)NCC(=O)NC4CC4)S(=O)(=O)Cc4ccc(F)cc4)nc3c2)on1` (centres unmarked) [Example 426, 2-({[(cyclopropyl-carbamoyl)methyl]carbamoyl}(4-fluorophenyl)methanesulfonyl-methyl)-N-{[3-(propan-2-yl)-1,2-oxazol-5-yl]methyl}-1,3-benzothiazole-5-carboxamide] it is 62 nM. Consider `COCCS(=O)(=O)C(C(=O)NCC(=O)NC1CC1)c1nc2cc(C(=O)OC(C)(C)C)ccc2s1` (centres unmarked) [Example 427, tert-butyl 2-({[(cyclopropyl-carbamoyl)methyl]carbamoyl}(2-methoxyethane-sulfonyl)methyl)-1,3-benzothiazole-5-carboxylate], for which the IC50 came to 66 nM. Same read-out and setting: the figure for `COCCS(=O)(=O)C(C(=O)NCC(=O)NC1CC1)c1nc2cc(C(=O)OC(C)(C)C)c(F)cc2s1` (centres unmarked) [Example 428, tert-butyl 2-({[(cyclopropyl-carbamoyl)methyl]carbamoyl}(2-methoxyethane-sulfonyl)methyl)-6-fluoro-1,3-benzothiazole-5-carboxylate] is 12 nM. `COCCS(=O)(=O)C(C(=O)NCC(=O)NC1CC1)c1nc2cc(C(=O)N3CC(C)(OC)C3)c(F)cc2s1` (centres unmarked) [Example 429, N-[(cyclopropyl-carbamoyl)methyl]-2-[6-fluoro-5-(3-methoxy-3-methylazetidine-1-carbonyl)-1,3-benzothiazol-2-yl}-2-(2-methoxyethane-sulfonyl)acetamide] came in with an IC50 of 69 nM. This IC50 lies about 5.8-fold higher than the previous one. In turn, `COCCNC(=O)c1ccc(-c2ccc3nc(C(C(=O)NCC(=O)NC4CC4)S(=O)(=O)c4ccccc4)sc3c2)cc1` (centres unmarked) [Example 431, 4-{2-[(benzenesulfonyl) ({[(cyclopropyl-carbamoyl)methyl]carbamoyl})methyl]-1,3-benzothiazol-6-yl}-N-(2-methoxyethyl) benzamide] returned an IC50 of 3 nM. Compared with the last molecule, the IC50 is about 23-fold lower.

`O=C(CNC(=O)C(c1nc2ccc(-c3cncnc3)cc2s1)S(=O)(=O)c1ccccc1)NC1CC1` (centres unmarked) [Example 432, 2-(benzenesulfonyl)-N-[(cyclopropyl-carbamoyl)methyl]-2-[6-(pyrimidin-5-yl)-1,3-benzothiazol-2-yl]acetamide] showed a half-maximal inhibitory concentration (IC50) of 61 nM. For `O=C(CNC(=O)C(c1nc2ccc(-c3ccc(F)nc3)cc2s1)S(=O)(=O)c1ccccc1)NC1CC1` (centres unmarked) [Example 434, 2-(benzenesulfonyl)-N-[(cyclopropyl-carbamoyl)methyl]-2-[6-(6-fluoropyridin-3-yl)-1,3-benzothiazol-2-yl] acetamide], inhibition was half-maximal at 14 nM (IC50).

In turn, `O=C(CNC(=O)C(c1nc2cc(-c3cncnc3)ccc2s1)S(=O)(=O)c1ccccc1)NC1CC1` (centres unmarked) [Example 435, 2-(benzenesulfonyl)-N-[(cyclopropyl-carbamoyl)methyl]-2-[5-(pyrimidin-5-yl)-1,3-benzothiazol-2-yl]acetamide] displayed an IC50 of 12 nM.

Turning to `CC(=O)NCc1ccc(-c2ccc3sc(C(C(=O)NCC(=O)NC4CC4)S(=O)(=O)c4ccccc4)nc3c2)cc1` (centres unmarked) [Example 436, 2-(benzenesulfonyl)-N-[(cyclopropyl-carbamoyl)methyl]-2-{5-[4-(acetamidomethyl)phenyl]-1,3-benzothiazol-2-yl} acetamide], the IC50 was found to be 13 nM.

`O=C(CNC(=O)C(c1nc2cc(-c3ccc(F)nc3)ccc2s1)S(=O)(=O)c1ccccc1)NC1CC1` (centres unmarked) [Example 437, 2-(benzenesulfonyl)-N-[(cyclopropyl-carbamoyl)methyl]-2-[5-(6-fluoropyridin-3-yl)-1,3-benzothiazol-2-yl] acetamide] displayed an IC50 of 13 nM. That is a double-digit nanomolar value. On to `Cc1cccc(S(=O)(=O)C(C(=O)NCC(=O)NC2CC2)c2nc3cc(-c4ccc(F)nc4)ccc3s2)c1` (centres unmarked) [Example 438, N-[(cyclopropyl-carbamoyl)methyl]-2-[5-(6-fluoropyridin-3-yl)-1,3-benzothiazol-2-yl]-2-(3-methylbenzene-sulfonyl)acetamide], for which the IC50 was 33 nM.

The same experiment, now with this note: EL from conditioned media of HT-1080 cells; 30 min preincubation at 37° C.
On to `COCCS(=O)(=O)C(C(=O)NCC(=O)NC1CC1)c1nc2cc(F)c(-c3ccc(-c4ncon4)cc3)cc2s1` (centres unmarked) [Example 411, 2-(6-(4-(1,2,4-Oxadiazol-3-yl)phenyl)-5-fluorobenzo[d]thiazol-2-yl)-N-(2-(cyclopropylamino)-2-oxoethyl)-2-((2-methoxyethyl)sulfonyl)acetamide], for which the IC50 came out at 2.1 nM. The same measure, in the same setting: with `O=C(CNC(=O)C(c1nc2cc(F)c(-c3ccc(F)nc3)cc2s1)S(=O)(=O)CCN1CCOCC1)NC1CC1` (centres unmarked) [Example 421, N-[(Cyclopropylcarbamoyl)methyl]-2-[5-fluoro-6-(6-fluoropyridin-3-yl)-1,3-benzothiazol-2-yl]-2-[2-(morpholin-4-yl)ethanesulfonyl]acetamide] the figure was 22 nM. Molecule `COCCS(=O)(=O)C(C(=O)NCC(=O)NC1CC1)c1nc2cc(C(=O)N3CCOCC3)c(F)cc2s1` (centres unmarked) [Example 425, N-(2-(Cyclopropylamino)-2-oxoethyl)-2-(6-fluoro-5-(morpholine-4-carbonyl)benzo[d]thiazol-2-yl)-2-((2-methoxyethyl)sulfonyl)acetamide] came in with an IC50 of 204 nM.

As for `O=C(CNC(=O)C(c1nc2ccc(-c3ccccc3)cc2s1)S(=O)(=O)c1ccccc1)NC1CC1` (centres unmarked) [Example 430, 2-(Benzenesulfonyl)-N-[(cyclopropylcarbamoyl)methyl]-2-(6-phenyl-1,3-benzothiazol-2-yl)acetamide], the IC50 stood at 6.6 nM.

The values above are taken from patent publication US10173991B2, “Sulfone amide linked benzothiazole inhibitors of endothelial lipase” (BRISTOL-MYERS SQUIBB COMPANY, priority 2014, dated 2019).
